Common to all, as to type: binding
In experiment [1] the target is T1, human protein extracts (Mixed: HEK-293/ K-562/ Placenta/ Hep G2) (Homo sapiens, UniProt P08240).
T1 construct: endogenous in cells; host or cells: mixture of HEK-293, K-562, Hep G2 and placenta
Put plainly: Chemoproteomic profiling, MS/MS data for all quantified proteins (Table S1 E3). How it is done: Human extracts were prepared as described ([Bantscheff et al., 2011]). Briefly, frozen cell pellets were homogenized in lysis buffer (50 mM Tris-HCl, 0.8% Igepal-CA630, 5% glycerol, 150 mM NaCl, 1.5 mM MgCl2, 25 mM sodium fluoride, 1 mM sodium vanadate, 1 mM DTT, pH 7.5). One cOmplete EDTA-free protease inhibitor tablet (Roche) was added per 25 ml. Samples were dispersed using a Dounce homogenizer, rotated for 30 min at 4°C, and centrifuged at 20,000g for 10 min at 4°C. Supernatants were then recentrifuged at 145,000g for 1 h at 4°C. Protein concentrations were determined using a Bradford assay (BioRad). Aliquots were snap frozen in liquid nitrogen and stored at −80°C.
Kinobeads were prepared by immobilizing Bis-(III) indolyl-maleimide, purvalanol B, staurosporine and CZC8004, and the analogs of PD173955, sunitinib and vandetanib on NHS-activated Sepharose 4 beads (Amersham) ([Bantscheff et al., 2007]). […] The chemoproteomic affinity-capturing experiments were performed as previously described ([Bantscheff et al., 2011]). Briefly, beads were washed and equilibrated in lysis buffer (50 mM Tris-HCl, pH 7.4, 0.4 % Igepal-CA630, 1.5 mM MgCl2, 5 % Glycerol, 150 mM NaCl, 25 mM NaF, 1 mM Na3VO4, 1 mM DTT, and one cOmplete EDTA-free protease inhibitor tablet (Roche) per 25 mL). […] 10 samples were measured in parallel (TMT 10-plex ([Werner et al., 2014])) to generate values for the affinity of the beads to the bound proteins (“depletion” values, 4 samples) and to generate IC50 values (6 samples) in a single experiment. Apparent dissociation constants were determined after accounting for protein depletion by the beads ([Bantscheff et al., 2011]). […]
Proteins were digested according to a modified single pot solid-phase sample preparation (SP3) protocol ([Hughes et al., 2014]). Peptides were labeled with isobaric mass tags (Thermo Fisher Scientific, Waltham, MA) using 10-plex TMT reagents, enabling relative quantification of 10 conditions in a single experiment ([Werner et al., 2014]). […]

For experiment [2], the target named is putative amino acid transporter (AAT) (PF3D7_1231400) (Plasmodium falciparum, UniProt Q8I5A6). Put plainly: Competitive chemoproteomics in Pf lysates (Kinobeads / bead-immobilized compound). The conditions noted are these: lysates exposed to 40 μM of the same compound vs vehicle. Here is the method:
(§1) Pf protein extracts were prepared as described elsewhere ([Paquet et al., 2017]). Parasite cultures at the trophozoite stage were harvested, washed twice in RPMI 1640 medium (Gibco), and lysed by the addition of saponin to a final concentration of 0.1% for 5 min at room temperature. Free parasites were sedimented by centrifugation (3500 rpm for 10 min), washed three times with phosphate-buffered saline, and stored at −80°C. Parasites were resuspended in cell lysis buffer (50 mM tris-HCl (pH 7.5), 5% glycerol, 1.5 mM MgCl2, […], 1 mM […], 25 mM sodium fluoride, 0.8% NP-40, EDTA-free protease inhibitor cocktail tablets (Roche Diagnostics), and 1 mM DTT) and disrupted by sonication (Sonics Vibra-Cell) using two 30-s cycles on ice at half-amplitude. After centrifugation (140,000g for 1 h at 4°C), soluble proteins were recovered from the supernatants, and protein concentrations of each sample were estimated using the Lowry-based DC assay (Bio-Rad). Samples were stored at −80°C until use.
(§2) Kinobeads were prepared by immobilizing Bis-(III) indolyl-maleimide, purvalanol B, staurosporine and CZC8004, and the analogs of PD173955, sunitinib and vandetanib on NHS-activated Sepharose 4 beads (Amersham) ([Bantscheff et al., 2007]). […] The chemoproteomic affinity-capturing experiments were performed as previously described ([Bantscheff et al., 2011]). Briefly, beads were washed and equilibrated in lysis buffer (50 mM Tris-HCl, pH 7.4, 0.4 % Igepal-CA630, 1.5 mM MgCl2, 5 % Glycerol, 150 mM NaCl, 25 mM NaF, 1 mM Na3VO4, 1 mM DTT, and one cOmplete EDTA-free protease inhibitor tablet (Roche) per 25 mL). The beads were incubated at 4°C for 1 h with either 0.1 ml (0.3 mg) Pf blood stage extract or 0.5 mL (2.5 mg) human cell/tissue protein extract (a mixture of HEK-293, K-562, Hep G2 , and placental cells), which was pre-incubated with compound or DMSO (vehicle control). 10 samples were measured in parallel (TMT 10-plex ([Werner et al., 2014])) to generate values for the affinity of the beads to the bound proteins (“depletion” values, 4 samples) and to generate IC50 values (6 samples) in a single experiment. Apparent dissociation constants were determined after accounting for protein depletion by the beads ([Bantscheff et al., 2011]). Beads were transferred to Filter plates (Durapore PVDF membrane, Merck Millipore), washed with lysis buffer, and eluted with SDS sample buffer.
(§3) Proteins were digested according to a modified single pot solid-phase sample preparation (SP3) protocol ([Hughes et al., 2014]). Peptides were labeled with isobaric mass tags (Thermo Fisher Scientific, Waltham, MA) using 10-plex TMT reagents, enabling relative quantification of 10 conditions in a single experiment ([Werner et al., 2014]). The labeling reactions and LC-MS/MS measurements using Q Exactive Orbitrap or Orbitrap Fusion Lumos mass spectrometers (Thermo Fisher Scientific) were performed as described elsewhere ([Sridharan et al., 2019]). Mascot 2.4 (Matrix Science, Boston, MA) was used for protein identification by using a 10 parts per million mass tolerance for peptide precursors and 20 mD (HCD) mass tolerance for fragment ions. To create the fasta file for mascot searching, all proteins corresponding to the taxonomy ‘Plasmodium falciparum (isolate 3D7)’ were downloaded from Uniprot (release 20170621) and supplemented with common contaminant protein sequences of bovine serum albumin, porcine trypsin and mouse, rat, sheep and dog keratins. To assess the false discovery rate (FDR), “decoy” proteins (reverse of all protein sequences) were created and added to the database, resulting in a database containing a total of 14266 protein sequences, with 50% forward and 50% reverse. For peptide and protein identification of human proteins see ([Sridharan et al., 2019]). […]

Experiment [3] concerns the target T2, calcium-dependent protein kinase 1 (CDPK1) (PF3D7_0217500) (Plasmodium falciparum, UniProt P62344).
T2 construct: endogenous in cells; host or cells: P. falciparum asexual blood-stage parasites (trophozoite stage)
Described as above. The settings on record: for Kd: read-out: Kdapp, CDPK1. Here is the method: as §1, §2, §3

Molecules are shown by their SMILES. Like-named read-outs stand apart in the source and are kept apart here. Bounds are passed on as bounds.

The IC50 is the concentration that inhibits the measured activity by half. Read a low IC50 as higher potency.

T2 sequence (P62344 whole entry): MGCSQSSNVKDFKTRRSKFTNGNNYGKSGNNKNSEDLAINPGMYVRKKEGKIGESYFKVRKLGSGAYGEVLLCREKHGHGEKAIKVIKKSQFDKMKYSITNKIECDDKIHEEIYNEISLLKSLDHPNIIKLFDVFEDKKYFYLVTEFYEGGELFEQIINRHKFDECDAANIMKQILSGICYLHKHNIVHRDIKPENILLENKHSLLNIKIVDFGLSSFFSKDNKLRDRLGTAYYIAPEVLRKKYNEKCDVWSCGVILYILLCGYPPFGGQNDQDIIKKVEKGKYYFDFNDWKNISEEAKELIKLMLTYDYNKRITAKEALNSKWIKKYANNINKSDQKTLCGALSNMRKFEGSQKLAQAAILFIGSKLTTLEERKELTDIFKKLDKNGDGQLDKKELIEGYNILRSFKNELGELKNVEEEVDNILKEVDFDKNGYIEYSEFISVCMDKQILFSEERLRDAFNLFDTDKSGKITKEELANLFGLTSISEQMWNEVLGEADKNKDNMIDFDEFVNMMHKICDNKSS
Chain of putative amino acid transporter (AAT) (PF3D7_1231400) (Q8I5A6 entry or part of it): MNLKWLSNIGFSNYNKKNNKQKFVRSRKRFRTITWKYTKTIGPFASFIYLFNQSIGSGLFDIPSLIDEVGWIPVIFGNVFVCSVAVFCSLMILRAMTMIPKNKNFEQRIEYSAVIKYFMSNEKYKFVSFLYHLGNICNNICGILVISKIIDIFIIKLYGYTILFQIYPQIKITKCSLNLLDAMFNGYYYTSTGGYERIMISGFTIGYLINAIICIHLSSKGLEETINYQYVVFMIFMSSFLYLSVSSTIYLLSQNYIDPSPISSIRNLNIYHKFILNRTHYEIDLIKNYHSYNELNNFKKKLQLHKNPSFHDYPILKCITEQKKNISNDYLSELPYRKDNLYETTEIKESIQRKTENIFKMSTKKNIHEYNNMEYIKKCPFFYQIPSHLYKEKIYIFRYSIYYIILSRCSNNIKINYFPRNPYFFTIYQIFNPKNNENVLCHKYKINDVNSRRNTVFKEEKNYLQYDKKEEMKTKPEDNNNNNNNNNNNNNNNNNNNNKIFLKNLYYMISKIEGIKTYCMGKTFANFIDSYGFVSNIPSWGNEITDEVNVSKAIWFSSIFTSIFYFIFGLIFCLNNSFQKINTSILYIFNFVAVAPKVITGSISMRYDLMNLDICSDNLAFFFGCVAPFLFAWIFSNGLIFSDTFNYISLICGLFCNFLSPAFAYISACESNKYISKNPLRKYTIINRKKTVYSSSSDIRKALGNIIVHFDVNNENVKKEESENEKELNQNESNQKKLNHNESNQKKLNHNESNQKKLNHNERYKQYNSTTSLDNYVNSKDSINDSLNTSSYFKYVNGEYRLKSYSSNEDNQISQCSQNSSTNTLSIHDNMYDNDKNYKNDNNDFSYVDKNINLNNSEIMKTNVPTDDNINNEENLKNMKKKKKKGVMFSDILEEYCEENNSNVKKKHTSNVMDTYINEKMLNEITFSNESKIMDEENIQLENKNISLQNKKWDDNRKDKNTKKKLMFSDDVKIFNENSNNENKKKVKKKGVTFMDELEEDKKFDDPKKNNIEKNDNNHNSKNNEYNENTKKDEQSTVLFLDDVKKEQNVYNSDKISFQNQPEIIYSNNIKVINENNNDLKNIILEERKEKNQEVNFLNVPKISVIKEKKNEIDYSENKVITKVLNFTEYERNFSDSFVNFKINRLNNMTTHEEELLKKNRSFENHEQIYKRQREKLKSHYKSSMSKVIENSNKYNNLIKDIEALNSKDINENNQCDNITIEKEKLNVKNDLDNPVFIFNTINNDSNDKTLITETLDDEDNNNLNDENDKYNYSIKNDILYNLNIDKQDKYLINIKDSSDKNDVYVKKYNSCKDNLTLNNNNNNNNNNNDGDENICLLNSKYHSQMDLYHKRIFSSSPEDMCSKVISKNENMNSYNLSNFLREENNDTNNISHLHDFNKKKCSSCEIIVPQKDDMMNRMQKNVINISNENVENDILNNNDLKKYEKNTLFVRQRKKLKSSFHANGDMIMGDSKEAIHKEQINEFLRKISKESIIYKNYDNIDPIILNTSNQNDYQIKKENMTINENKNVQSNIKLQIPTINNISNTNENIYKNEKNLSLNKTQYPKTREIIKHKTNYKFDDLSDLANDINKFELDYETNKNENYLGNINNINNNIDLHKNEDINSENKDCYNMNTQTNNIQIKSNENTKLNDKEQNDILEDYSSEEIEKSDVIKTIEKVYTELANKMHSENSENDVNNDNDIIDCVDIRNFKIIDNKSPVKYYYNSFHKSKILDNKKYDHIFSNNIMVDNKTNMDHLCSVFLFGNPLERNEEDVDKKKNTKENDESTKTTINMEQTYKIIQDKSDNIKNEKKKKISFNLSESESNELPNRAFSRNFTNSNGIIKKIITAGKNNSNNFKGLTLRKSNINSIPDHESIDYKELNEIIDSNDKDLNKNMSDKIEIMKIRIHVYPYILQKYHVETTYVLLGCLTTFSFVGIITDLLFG
T1 sequence (P08240 whole entry): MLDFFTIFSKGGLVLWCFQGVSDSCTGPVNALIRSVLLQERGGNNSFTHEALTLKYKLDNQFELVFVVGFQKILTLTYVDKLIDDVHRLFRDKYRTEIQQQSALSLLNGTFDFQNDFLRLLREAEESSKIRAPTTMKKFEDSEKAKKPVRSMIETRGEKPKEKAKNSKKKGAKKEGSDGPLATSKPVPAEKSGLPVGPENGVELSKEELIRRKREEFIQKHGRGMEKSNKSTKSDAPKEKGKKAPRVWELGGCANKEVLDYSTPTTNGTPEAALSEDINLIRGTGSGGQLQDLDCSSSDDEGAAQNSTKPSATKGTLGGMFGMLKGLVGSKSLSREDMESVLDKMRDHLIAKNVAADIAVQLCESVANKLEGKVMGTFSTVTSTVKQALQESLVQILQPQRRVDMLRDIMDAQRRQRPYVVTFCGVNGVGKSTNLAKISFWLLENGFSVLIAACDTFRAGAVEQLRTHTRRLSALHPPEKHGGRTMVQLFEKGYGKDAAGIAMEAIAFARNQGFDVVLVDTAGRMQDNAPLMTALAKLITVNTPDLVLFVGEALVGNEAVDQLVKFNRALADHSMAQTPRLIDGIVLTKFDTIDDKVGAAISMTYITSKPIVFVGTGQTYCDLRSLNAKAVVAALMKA

`CC(C)(CN)c1nc(-c2ccc(Cl)c(O)c2)c(-c2ccncc2)[nH]1` [MMV030084] had a half-inhibitory concentration (IC50) in experiment [1] of at least 30000 nM. Further, the “AAT pull-down by bead-bound compound” value in experiment [2] is “pulled down”. Further, the Kd was 220 nM in experiment [3] ('084-beads (bead-immobilized MMV030084)); 215 nM in experiment [3] (Kinobeads); below 100 nM in experiment [3] (five independent experiments, lowest tested concentration 0.1 μM); 215 to 220 nM in experiment [3] (two follow-up experiments with lower concentrations). The “CDPK1 pull-down by bead-bound compound” value in experiment [3] (lysates exposed to 40 μM of the same compound vs vehicle) was “pulled down”.

Values taken from paper PMC7369637, “Inhibition of Resistance-Refractory P. falciparum Kinase PKG Delivers Prophylactic, Blood Stage, and Transmission-Blocking Antiplasmodial Activity” (Cell Chemical Biology, 2020).
